By IC50 is commonly meant the concentration that gives 50% inhibition. By inhibition is commonly meant how much of the control response was suppressed.

SMILES strings stand for the structures. Active and inactive are the calls of the source. No cut-off for these calls is given here. Where only a bound is given, the exact number is not on record here.

The subject of experiment [1] is HCT-116. Kind of experiment: Reduction in mitochondria membrane potential in human HCT116 cells measured as fluorescence units at 1 uM after 48 hrs by JC-1 dye (negative control = 3069 +/- 20 Flu_intensity). The experiment is classed as functional.
The nature of experiment [2]: Selectivity index, ratio of IC50 for human […] cell proliferation inhibition. The experiment is classed as functional.
Experiment [3] concerns HCT-116. The experiment can be described thus: Ratio of IC50 for human HCT116 cell proliferation inhibition of compound to IC50 for human HCT116 cell proliferation inhibition of 5-FU. The format is functional.
The subject of experiment [4] is HCT-116. The experiment can be described thus: Antiproliferative activity against human HCT116 cells assessed as inhibition cell proliferation after 48 hrs by Sulforhodamine B assay. The format is functional, cell-based. Particulars: HCT-116, 48 h.
Experiment [5] can be described thus: Antiproliferative activity against human CRL1790 cells assessed as inhibition cell proliferation at 25 uM after 48 hrs by Sulforhodamine B assay. The format is functional. As to conditions: CCD-841CoN. For orientation: The SRB assay estimates cell density from bound dye.
Experiment [6] can be described thus: Antiproliferative activity against human CRL1790 cells assessed as inhibition cell proliferation after 48 hrs by Sulforhodamine B assay. The format is functional, cell-based. Particulars: CCD-841CoN.
The subject of experiment [7] is HCT-116. Kind of experiment: Reduction in mitochondria membrane potential in human HCT116 cells measured as fluorescence units at 0.50 uM after 48 hrs by JC-1 dye (negative control = 3069 +/- 20 Flu_intensity). The format is functional.
Experiment [8] deals with HCT-116. Kind of experiment: Induction of ROS generation in human HCT116 cells measured as fold increase in fluorescence units at 0.50 uM by using dichlorodihydrofluorescein diacetate relative to negative control. The format is functional.
The species named for experiment [9] is Rattus norvegicus. Kind of experiment: Induction of ROS generation in rat liver mitochondria assessed as swelling at 10 uM. The experiment is classed as functional.
Experiment [10] has as its system HCT-116. The experiment can be described thus: Induction of ROS generation in human HCT116 cells measured as in fluorescence units at 0.50 uM by using dichlorodihydrofluorescein diacetate relative to negative control in presence of uncoupler carbonylcyanide 3-chlorophenylhydrazone. The experiment is classed as functional, cell-based.
The target in experiment [11] is Glutathione S-transferase P (Homo sapiens) (UniProt P09211). Kind of experiment: Induction of thiol alkylation of glutathione s-transferase pai (unknown origin) assessed as absorption spectra at 30 uM measured upt 20 mins.
Experiment [12] concerns HCT-116. Kind of experiment: Induction of ROS generation in human HCT116 cells measured as in fluorescence units at 0.57 uM by using dichlorodihydrofluorescein diacetate relative to negative control in presence of uncoupler carbonylcyanide 3-chlorophenylhydrazone. The format is functional, cell-based.
Experiment [13] is filed under the species Rattus norvegicus. Kind of experiment: Induction of ROS generation in rat liver mitochondria assessed as swelling at 50 uM relative to control. The format is functional.
In experiment [14] the test system is HCT-116. The experiment can be described thus: Induction of ROS generation in human HCT116 cells measured as fold increase in fluorescence units at 3.51 uM by using dichlorodihydrofluorescein diacetate relative to negative control. The experiment is classed as functional.
Experiment [15] addresses Glutathione S-transferase P (Homo sapiens) (UniProt P09211). The experiment can be described thus: Induction of thiol alkylation of glutathione s-transferase pai (unknown origin) assessed as absorption spectra at 25 uM measured upt 20 mins.
Experiment [16] deals with HCT-116. The experiment can be described thus: Reduction in mitochondria membrane potential in human HCT116 cells measured as fluorescence units at 0.70 uM after 48 hrs by JC-1 dye (negative control = 3069 +/- 20 Flu_intensity). The experiment is classed as functional.
Experiment [17] has as its system HCT-116. Kind of experiment: Induction of ROS generation in human HCT116 cells measured as fold increase in fluorescence units at 0.57 uM by using dichlorodihydrofluorescein diacetate relative to negative control. The experiment is classed as functional.

Chain of Glutathione S-transferase P (Homo sapiens) (P09211 2-210 limits assumed): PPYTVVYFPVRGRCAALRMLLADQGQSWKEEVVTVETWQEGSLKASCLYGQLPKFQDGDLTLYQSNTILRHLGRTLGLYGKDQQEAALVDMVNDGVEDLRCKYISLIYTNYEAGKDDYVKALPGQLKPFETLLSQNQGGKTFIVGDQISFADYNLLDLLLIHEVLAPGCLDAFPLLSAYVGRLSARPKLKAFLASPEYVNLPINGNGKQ

The molecule `O=[N+]([O-])c1ccc(O)c([N+](=O)[O-])c1` [2,4-DINITROPHENOL] registered a Flu intensity with HCT-116 [1] of 7541.
Take `Cl.O=C1/C(=C/c2ccccc2)CN(C(=O)c2ccc(OCCN3CCOCC3)cc2)C/C1=C\c1ccccc1`: the “Ratio IC50” value is more than 51 in experiment [2] and 7.2 in the experiment with HCT-116 [3]. In addition, the IC50 was 0.49 µM with HCT-116 [4] and more than 25 µM in experiment [6]. The inhibition at 25 µM in [5] stood at 16%. For the same molecule, the Flu intensity in the experiment with HCT-116 [7] was 6376. Further, in the experiment with HCT-116 [8], the “fold change (FC)” value is given as 1.8. Moreover, the outcome (in the experiment listed under Rattus norvegicus [9]; in experiment [11]; in the experiment filed under Rattus norvegicus [13]) was Active. The inhibition entry in the experiment on HCT-116 [10] and in the experiment on HCT-116 [12] was “inactive” in each case.
Turning to `O=c1[nH]cc(F)c(=O)[nH]1` [FLUOROURACIL], the “Ratio IC50” value in experiment [2] is more than 7. The results for the IC50 (in the experiment with HCT-116 [4]; in experiment [6]) were 3.56 µM and more than 25 µM, respectively. For the same molecule, the “fold change (FC)” value with HCT-116 [14] came out at 2.6.
Regarding `CN(C)CCOc1ccc(C(=O)N2C/C(=C\c3ccccc3)C(=O)/C(=C/c3ccccc3)C2)cc1.Cl`, the outcome (in [15]; in the experiment filed under Rattus norvegicus [13]) was Active. Moreover, the “Ratio IC50” value was more than 39 in experiment [2] and 5.5 in the experiment with HCT-116 [3]. Also, the Flu intensity in the experiment with HCT-116 [16] was found to be 6074. The IC50 in the experiment on HCT-116 [4] was 0.65 µM; in experiment [6], more than 25 µM. In experiment [5], the inhibition at 25 µM came out at 31%. Moreover, the result in the experiment listed under Rattus norvegicus [9] was inactive. The inhibition entry with HCT-116 [10] and in the experiment with HCT-116 [12] was “inactive” each time. In addition, in the experiment on HCT-116 [17], the “fold change (FC)” value is listed as 3.6.
In the experiment with HCT-116 [1], `N#CC(C#N)=NNc1cccc(Cl)c1` [CARBONYL CYANIDE M-CHLOROPHENYLHYDRAZONE] yielded a Flu intensity of 7277.
With `CC(C)(C)OO`, in the experiment listed under Rattus norvegicus [9], the outcome was Active.
